Values quoted from earlier work as cited in patent US20200230059A1, “Solid Micronized Melatonin Composition” (Physician's Seal, LLC, priority 2019, published 2020).
Where two headings read alike, the source gives them in different places.

COc1ccc2[nH]cc(CCNC(C)=O)c2c1 [Melatonin]
solubility (gastric environment, pH approximately 1 to 3): relatively high
solubility (lower GI tract environment, pH approximately 5.5 to 7): decreases even further
solubility (upper GI tract environment, pH approximately 4.5 to 5.5): decreases
